Source: the supplement of paper PMC10307832

Experiments:
Test in all cases: relative viability (nuclei count vs DMSO), 5 days (fraction); higher = more cells survive
VX-11e + Tozasertib = compound: CC1=CN=C(N=C1C2=CNC(=C2)C(=O)N[C@H](CO)C3=CC(=CC=C3)Cl)NC4=C(C=C(C=C4)F)Cl [VX-11e] + Cc1cc(Nc2cc(N3CCN(C)CC3)nc(Sc3ccc(NC(=O)C4CC4)cc3)n2)n[nH]1 [Tozasertib] (partner 0.1 µM)
How it was run: (§1)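 Lung cancer cell lines in 1536-well plates were dosed by pin tool the day after seeding, either with one drug alone or with a fixed anchor-drug dose plus five library-drug doses (not always all listed) in √10 steps. After 5 days, cells were fixed and their nuclei stained in one step (final 0.05% Triton X-100, 1% formaldehyde, 1 ug/ml Hoechst), then counted on 4× images. Relative viability is the nuclei count in treated wells divided by that in vehicle wells. Values are medians of duplicate plates.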

VX-11e + Phenformin = compound: CC1=CN=C(N=C1C2=CNC(=C2)C(=O)N[C@H](CO)C3=CC(=CC=C3)Cl)NC4=C(C=C(C=C4)F)Cl [VX-11e] + N=C(N)NC(=N)NCCc1ccccc1 [Phenformin] (partner 250 µM)
How it was run: as §1

VX-11e + Navitoclax = compound: CC1=CN=C(N=C1C2=CNC(=C2)C(=O)N[C@H](CO)C3=CC(=CC=C3)Cl)NC4=C(C=C(C=C4)F)Cl [VX-11e] + CC1(C)CCC(c2ccc(Cl)cc2)=C(CN2CCN(c3ccc(C(=O)NS(=O)(=O)c4ccc(N[C@H](CCN5CCOCC5)CSc5ccccc5)c(S(=O)(=O)C(F)(F)F)c4)cc3)CC2)C1 [Navitoclax] (partner 0.5 µM)
How it was run: as §1

VX-11e = compound: CC1=CN=C(N=C1C2=CNC(=C2)C(=O)N[C@H](CO)C3=CC(=CC=C3)Cl)NC4=C(C=C(C=C4)F)Cl [VX-11e]
How it was run: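 Lung cancer cell lines received five library-drug doses (not always all listed) spaced by √10, pinned on vehicle-anchored 1536-well plates after an overnight stay at 37 °C. Five days later, with no medium change, nuclei were Hoechst-stained, imaged at 4× and counted with MetaXpress. Viability is treated-well nuclei relative to vehicle-well nuclei, as a median across plates. Passing plates had control CV below 25% and at least one doubling.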

| Cell Line | relative viability (VX-11e + Tozasertib; first compound 0.04 µM) | relative viability (VX-11e + Tozasertib; first compound 0.1265 µM) | relative viability (VX-11e + Tozasertib; first compound 0.4 µM) | relative viability (VX-11e + Tozasertib; first compound 1.265 µM) | relative viability (VX-11e + Tozasertib; first compound 4 µM) | relative viability (VX-11e + Phenformin; first compound 0.04 µM) | relative viability (VX-11e + Phenformin; first compound 0.1265 µM) | relative viability (VX-11e + Phenformin; first compound 0.4 µM) | relative viability (VX-11e + Phenformin; first compound 1.265 µM) | relative viability (VX-11e + Phenformin; first compound 4 µM) | relative viability (VX-11e + Navitoclax; first compound 0.04 µM) | relative viability (VX-11e + Navitoclax; first compound 0.1265 µM) | relative viability (VX-11e + Navitoclax; first compound 0.4 µM) | relative viability (VX-11e + Navitoclax; first compound 1.265 µM) | relative viability (VX-11e + Navitoclax; first compound 4 µM) | relative viability (VX-11e; 0.04 µM) | relative viability (VX-11e; 0.1265 µM) | relative viability (VX-11e; 0.4 µM) | relative viability (VX-11e; 1.265 µM) | relative viability (VX-11e; 4 µM) |
| --- | --- | --- | --- | --- | --- | --- | --- | --- | --- | --- | --- | --- | --- | --- | --- | --- | --- | --- | --- | --- |
| HCC-44 | 0.975 | 0.863 | 0.182 | 0.396 | 0.549 | 0.211 | 0.172 | 0.115 | 0.119 | 0.139 | 0.92 | 0.883 | 1.22 | 1 | 0.732 | 1 | 0.941 | 0.907 | 0.915 | 0.733 |
| HCC-78 |  | 0.538 | 0.386 | 0.324 | 0.487 |  | 0.75 | 0.857 | 0.672 | 0.738 | 0.878 | 0.69 | 0.769 | 0.455 | 0.762 | 0.934 | 1.02 | 1.01 | 0.68 | 0.667 |
| HCC-366 | 0.12 | 0.0759 |  | 0.0517 | 0.0473 | 0.61 | 0.549 |  | 0.57 | 0.463 | 1.22 | 1.02 |  | 0.993 | 0.708 | 0.997 | 0.936 |  | 1.03 | 0.676 |
| HCC-827 | 0.396 | 0.401 | 0.421 | 0.401 | 0.347 | 0.409 | 0.413 | 0.369 | 0.479 | 0.375 | 1.07 | 1.02 | 0.992 | 1.24 | 0.919 | 1.09 | 0.988 | 1.07 | 1.14 | 0.958 |
| HOP-62 | 0.344 | 0.368 | 0.402 | 0.321 | 0.24 | 0.754 | 0.647 | 0.524 | 0.421 | 0.377 | 0.992 | 0.891 | 1.02 | 0.46 | 0.582 | 1.04 | 0.986 | 0.921 | 0.595 | 0.567 |
| IA-LM |  |  |  |  |  |  |  |  |  |  | 0.899 | 0.891 | 0.844 | 0.415 | 0.0436 | 0.767 | 0.916 | 0.913 | 0.468 | 0.129 |
| LC-2-ad | 0.522 | 0.45 | 0.319 | 0.383 | 0.369 | 0.525 | 0.461 | 0.395 | 0.372 | 0.467 | 0.463 | 0.375 | 0.362 | 0.372 | 0.248 | 1.01 | 0.823 | 0.662 | 0.603 | 0.66 |
| LCLC-97TM1 | 0.21 | 0.223 | 0.2 | 0.166 | 0.179 | 0.525 | 0.393 | 0.347 | 0.516 | 0.382 | 0.492 | 0.463 |  | 0.408 | 0.157 | 0.911 | 0.889 | 0.797 | 0.499 | 0.541 |
| LCLC-103H | 0.467 | 0.412 | 0.48 | 0.3 | 0.4 | 0.309 | 0.333 | 0.312 | 0.302 | 0.295 |  |  |  |  |  | 0.939 | 0.924 | 0.981 | 0.783 | 0.805 |
| NCI-H358 | 0.113 | 0.0919 | 0.102 | 0.096 | 0.0812 | 0.276 | 0.288 | 0.07 | 0.263 | 0.142 |  |  |  |  |  | 1.01 | 0.835 | 0.595 | 0.805 | 0.266 |
| NCI-H522 | 0.532 | 0.56 | 0.553 | 0.467 | 0.503 | 0.609 | 0.621 | 0.558 | 0.48 | 0.656 |  |  |  |  |  | 0.796 | 0.876 | 0.738 | 0.614 | 0.666 |
| NCI-H650 | 0.828 | 0.648 | 0.683 | 0.509 | 0.511 | 0.496 | 0.441 | 0.491 | 0.442 | 0.446 |  |  |  |  |  | 0.781 | 0.925 | 1.04 | 0.872 | 0.974 |
| NCI-H661 | 0.323 | 0.354 | 0.349 | 0.382 | 0.379 | 0.242 | 0.324 | 0.275 | 0.293 | 0.27 |  |  |  |  |  | 1.01 | 1.02 | 0.947 | 1.04 | 0.724 |
| NCI-H1299 |  |  |  |  |  |  |  |  |  |  | 1.02 | 1.01 | 1.02 | 0.976 | 0.692 | 1.01 | 0.981 | 1.03 | 1.03 | 0.49 |
| NCI-H1563 |  |  |  |  |  | 0.647 | 0.607 | 0.549 | 0.713 | 0.806 |  |  |  |  |  | 0.983 | 0.916 | 0.908 | 0.944 | 0.82 |
| NCI-H1648 | 0.515 | 0.378 | 0.566 | 0.292 | 0.318 |  |  |  |  |  |  |  |  |  |  | 0.978 | 0.958 | 1.54 | 0.694 | 0.624 |
| NCI-H1703 |  |  |  |  |  |  |  |  |  |  | 1.12 | 1.21 | 1.24 | 1.29 | 0.744 | 0.828 | 1.11 | 0.632 | 0.961 | 0.74 |
| NCI-H1792 |  |  |  |  |  | 0.151 | 0.386 | 0.137 | 0.0901 | 0.038 | 0.614 | 0.639 | 0.672 | 0.646 | 0.588 | 0.604 | 0.852 | 0.236 | 0.534 | 0.174 |
| NCI-H2342 | 0.422 | 0.503 | 0.498 | 0.406 | 0.416 | 0.438 | 0.614 | 0.534 | 0.782 | 0.583 |  |  |  |  |  | 0.666 | 1.03 | 0.923 | 0.992 | 0.9 |
| SW 900 | 0.737 | 0.401 | 0.409 | 0.307 | 0.258 | 0.504 | 0.456 | 0.216 | 0.213 | 0.318 |  |  |  |  |  | 0.722 | 0.768 | 0.182 | 0.473 | 0.541 |
